This passage reports EC50 results from US11078216B2, “Bisaryl amides as NRF2 activators” (GLAXOSMITHKLINE INTELLECTUAL PROPERTY DEVELOPMENT LIMITED, priority 2016, dated 2021).

This experiment deals with NRF2 (NQO1 activity as marker for NRF2 activation), BEAS-2B cells. Nature of the experiment: BEAS-2B NQO1 MTT Assay. Format: cell-based. The settings on record: EC50 of NQO1 specific activity induction, 48 hours incubation, read-out: EC50. The essentials:
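BEAS-2B cells were exposed to compound for 48 h at 37° C, 5% CO2, then lysed. NQO1 activity was measured kinetically by MTT reduction at 570 nm over 30 minutes; EC50 came from 3-parameter fit of Delta OD/min versus log concentration.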

Where two headings read alike, the source gives them in different places.

Consider `CCn1cc(CO[C@@H](c2ccc(C)c(CN3C[C@@H](C)Cc4ncccc4S3(=O)=O)c2)C(C)(C)C(=O)Nc2cccnc2)nn1` [Example 58, (S)-3-((1-Ethyl-1H-1,2,3-triazol-4-yl)methoxy)-2,2-dimethyl-3-(4-methyl-3-(((S)-4-methyl-1,1-dioxido-4,5-dihydropyrido[2,3-f][1,2]thiazepin-2(3H)-yl)methyl)phenyl)-N-(pyridin-3-yl)propanamide], for which the EC50 – broadly, the midpoint of the concentration-response curve – (Homo sapiens) lay within 100 to 1000 nM. Take `CCn1nnc2c(C)c([C@H](c3ccc(C)c(CN4C[C@H](C)Cc5ccccc5S4(=O)=O)c3)C(C)(C)C(=O)Nc3cccnc3)cc(OC)c21` [Example 59, (S)-3-(1-Ethyl-7-methoxy-4-methyl-1H-benzo[d][1,2,3]triazol-5-yl)-2,2-dimethyl-3-(4-methyl-3-(((R)-4-methyl-1,1-dioxido-4,5-dihydrobenzo[f][1,2]thiazepin-2(3H)-yl)methyl)phenyl)-N-(pyridin-3-yl)propanamide]: the EC50 (Homo sapiens) lay in the range of 100 to 1000 nM. For the compound `CC[C@@H]1CN(Cc2cc([C@H](c3cc(OC)c4c(nnn4CC)c3C)C(C)(C)C(=O)Nc3cccnc3)ccc2C)S(=O)(=O)c2ccccc2O1` [Example 60, (R)-3-(3-(((R)-4-Ethyl-1,1-dioxido-3,4-dihydro-2H-benzo[b][1,4,5]oxathiazepin-2-yl)methyl)-4-methylphenyl)-3-(1-ethyl-7-methoxy-4-methyl-1H-benzo[d][1,2,3]triazol-5-yl)-2,2-dimethyl-N-(pyridin-3-yl)propanamide], under “Homo sapiens”, the concentration giving a half-maximal response (EC50) is 100 to 1000 nM. Take `COc1cc(C(CC(=O)Nc2cccnc2)c2ccc(C)c(CN3C[C@@H](C)Cc4ccc(C(F)(F)F)cc4S3(=O)=O)c2)cc2nnn(C)c12` (some centres unmarked) [Example 61]: the concentration giving a half-maximal response (EC50) was 10 to 100 nM. `COc1cc([C@@H](CC(=O)Nc2cccnc2)c2ccc(C)c(CN3C[C@@H](C)Oc4ccccc4S3(=O)=O)c2)cc2nnn(C)c12` [Example 62, (S)-3-(7-Methoxy-1-methyl-1H-benzo[d][1,2,3]triazol-5-yl)-3-(4-methyl-3-(((R)-4-methyl-1,1-dioxido-3,4-dihydro-2H-benzo[b][1,4,5]oxathiazepin-2-yl)methyl)phenyl)-N-(pyridin-3-yl)propanamide]: under “Homo sapiens”, the EC50 fell in the range of 10 to 100 nM. `CCn1nnc2c(C)c([C@H](c3ccc(C)c(CN4C[C@@H](C)Cc5ccc(C(F)(F)F)cc5S4(=O)=O)c3)C(C)(C)C(=O)Nc3cccnc3)cc(OC)c21` [Example 63, (S)-3-(1-Ethyl-7-methoxy-4-methyl-1H-benzo[d][1,2,3]triazol-5-yl)-2,2-dimethyl-3-(4-methyl-3-(((S)-4-methyl-1,1-dioxido-8-(trifluoromethyl)-4,5-dihydrobenzo[f][1,2]thiazepin-2(3H)-yl)methyl)phenyl)-N-(pyridin-3-yl)propanamide]: the EC50 (Homo sapiens) lay in the range of 1 to 10 nM. On to `CC[C@@H]1CN(Cc2cc([C@@H](c3cc(OC)c4c(nnn4CC)c3C)C(C)(C)C(=O)Nc3cccnc3)ccc2C)S(=O)(=O)c2ccccc2O1` [Example 64, (S)-3-(3-(((R)-4-Ethyl-1,1-dioxido-3,4-dihydro-2H-benzo[b][1,4,5]oxathiazepin-2-yl)methyl)-4-methylphenyl)-3-(1-ethyl-7-methoxy-4-methyl-1H-benzo[d][1,2,3]triazol-5-yl)-2,2-dimethyl-N-(pyridin-3-yl)propanamide], for which the EC50 (Homo sapiens) lay within 1 to 10 nM. As for `CC[C@@H]1CN(Cc2cc([C@H](CC(=O)Nc3cccnc3)c3cc(OC)c4c(nnn4CC)c3C)ccc2C)S(=O)(=O)c2cccnc2O1` [Example 65, (S)-3-(3-(((R)-4-Ethyl-1,1-dioxido-3,4-dihydro-2H-pyrido[2,3-b][1,4,5]oxathiazepin-2-yl)methyl)-4-methylphenyl)-3-(1-ethyl-7-methoxy-4-methyl-1H-benzo[d][1,2,3]triazol-5-yl)-N-(pyridin-3-yl)propanamide], the EC50 (Homo sapiens) lay within 10 to 100 nM.
